From patent publication US6455303B1, “Detection of biologically active molecules by use of pre-activated cell-based biosensors in liquid-based separation systems” (Cellectricon AB, priority 1997, dated 2002) come the findings set out here.

The test system of assay [1] is AMPA receptors. Description: Capillary electrophoresis-patch clamp detection, kainate pre-activated whole-cell biosensor. It is filed as cell-based. The conditions noted are these: 100 μM KA in capillary; holding potential −70 mV; interneurons from rat olfactory bulb. Here is the method: Separation of mixtures of glutamate receptor antagonists were performed using cell-based biosensor-compatible buffers. A cell-based biosensor-compatible buffer is a buffer which effectively keeps the cell-based biosensor in a functional and viable condition during the course of the experiment or the analysis procedure. slightly modified standard HEPES-saline buffer containing 140 mM NaCl, 5 mM KCl, 1 mM MgCl2, 1 mM CaCl2, 10 mM glucose and 10 mM HEPES (pH 7.4, NaOH) was used as extracellular and capillary buffer in examples 1 and 2 except in the separation of Mg^2+ where MgCl2 were omitted. As described in the examples, the preferred agonist were only—included in the capillary solution. […]
(§1) The patch clamp detection was performed in the whole-cell configuration as described by Hamill, et al. (see Hamill, O. P., et al, Pflug. Arch. 391:85, 1981). […] Patch pipettes were fabricated from thick-walled borosilicate glass (code no GC150-10, Clark Electromedical Instruments, Pangboume, Reading, UK). […]
(§2) The signals were recorded with a patch clamp amplifier (Model List L/M EPC-7, List-Electronic, Darmstadt, Germany), digitized (20 kHz, PCM 2 A/D VCR adapter, Medical Systems Corp., NY, USA), and stored on videotape. […]
On the technique in general: In patch-clamp work, channel activity is measured electrically.

The test system of assay [2] is N-methyl-D-aspartate receptor. In words: Capillary electrophoresis-patch clamp detection, NMDA/glycine pre-activated whole-cell biosensor. In kind it is cell-based, rat. Here is the method:
Separation of mixtures of glutamate receptor antagonists were performed using cell-based biosensor-compatible buffers. A cell-based biosensor-compatible buffer is a buffer which effectively keeps the cell-based biosensor in a functional and viable condition during the course of the experiment or the analysis procedure. slightly modified standard HEPES-saline buffer containing 140 mM NaCl, 5 mM KCl, 1 mM MgCl2, 1 mM CaCl2, 10 mM glucose and 10 mM HEPES (pH 7.4, NaOH) was used as extracellular and capillary buffer in examples 1 and 2 except in the separation of Mg^2+ where MgCl2 were omitted. As described in the examples, the preferred agonist were only—included in the capillary solution.
The cells used were interneurons from rat olfactory bulb acutely isolated according to the procedures described by Jacobson et al. (see Jacobson, I., Neurosci. Res. Comm. 8:11, 1991, and Jacobson, I., et al., Neurosci. Res. Comm. 10:177, 1992).
Newborn or adult rats (10-200 g) were anaesthetized with halothane (ISC Chemicals Ltd., Avonmouth, England) and decapitated. The olfactory bulbs were dissected and sliced into four pieces and placed in an incubation chamber. The chamber contained proteases from Aspergillus oryzae (2.5 mg/ml) which were dissolved in pre-warmed (32° C.) HEPES-saline buffer (see above). After 25-30 min., the slices were washed with the same buffer solution for 20 min. The solutions were constantly perfused with 95% O2 and 5% CO2 during both the enzymatic treatment arid the washing. […]
as §1, §2

The mark [3] stands for this setting: voltage ramp −80 to +40 mV, NMDA receptor response attenuated by separated Mg^2+.

Consider `N#Cc1cc2c(cc1[N+](=O)[O-])=NC(=O)C(=O)N=2` [CNQX, 6-cyano-7-nitroquinoxaline-2,3-dione], for which the “effect on KA-activated current responses” value in assay [1] is recorded as “transient attenuations of KA-activated current responses”.

With `O=C(O)c1nc2cc(Cl)c(Cl)cc2nc1O` [DCQXC, 6,7-dichloro-3-hydroxy-2-quinoxaline-carboxylic acid], in assay [1], the “effect on KA-activated current responses” value was “transient attenuations of KA-activated current responses”. As for `[Mg+2]` [Mg^2+], the “effect on N-methyl-D-aspartate-activated current responses” value in assay [2] (Mg^2+ 2 mM injected, 200 μM NMDA and 20 μM glycine in capillary, holding potential −70 mV, interneurons from rat olfactory bulb) is “transient Gaussian-distributed attenuation of N-methyl-D-aspartate-activated current responses”. Also, in assay [2] (setting [3]), the “current-to-voltage relationship: inward currents at membrane resting potentials” value is on record as “blockade of inward currents at membrane resting potentials” and the “current-to-voltage relationship: outward currents at positive potentials” value is reported as “unaltered outward currents at positive potentials”.
